Patent publication US7879835B2 (Korea Research Institute of Chemical Technology, priority 2004, dated 2011)

Assays:
[1] = test system: osteoclast (TRAP-positive multinuclear cell) formation; test: Inhibitory effect on osteoclast formation (TRAP staining); format: cell-based, mice; details: 8 days culture with M-CSF and RANKL, compared to control
How it was run: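 Non-adherent bone marrow cells from 7–9-week-old female mice, 2×10^5 per well, cultured 8 days with M-CSF (20 ng/ml), RANKL (30 ng/ml) and compound at 0.3, 1.0 or 3 μM. Formation scored by TRAP staining after fixation, 1 h at 37 °C, pH 5.0.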

osteoclasts = test: Inhibitory effect on resorption activity of osteoclast (resorption pit area on calcium phosphate-coated plate); format: cell-based, mice; details: compared to control
Procedure: After finishing culture, the plate was washed with distilled water, and 50 μl/well of 5% sodium hypochlorite was added to the plate. The plate was let alone for 5 min, washed again with distilled water to remove the adherent cells, and dried at room temperature. Then, the area of formed resorption pits was calculated by means of Image Pro Plus software (Media Cybernetics Ver. 3.0).

[2] = In vitro pharmacokinetics: metabolic stability in liver microsome; format: in vitro ADME; details: human liver microsome 1 mg/ml, 20 μM compound
Procedure: Metabolic stabilities of the compounds of the Examples were examined by employing microsome samples prepared from the human liver.
Each 20 μM of the compounds were reacted with 1 mg/ml of liver microsome and the half-lives and one-hour stabilities of the compounds were determined.

rats = test: In vivo acute toxicity test (LD50); details: single dose, 2 weeks observation
Procedure: In order to determine the acute toxicities of the compounds prepared in Examples, 6-week old specific pathogen-free (SPF) rats each weighing […] were divided into groups of 10 rat each.
In case of subcutaneous administration, each of the compounds was dissolved in 5% PEG400 solution to a concentration of 20 mg/ml, the resulting solution was serially diluted with 5% PEG400 solution to concentrations of 5, 2.5, 1.25 and 0.625 mg/ml, and the dilutions were subcutaneously injected once to the rats at a dose of 10 ml/kg body weight.
In case of oral administration, each of the compounds was dissolved in soybean oil to a concentration of 180 mg/ml, the resulting solution was serially diluted with soybean oil to concentrations of 80, 20 and 5 mg/ml, and the dilutions were orally administered once to the rats at a dose of 20 ml/kg body weight. […]
During 2 weeks after the administration of the compounds, the death rate, clinical symptoms and weight changes of the rats were observed, and hematological and biochemical tests on blood samples were performed. Then, the rats were sacrificed and the internal organs were visually examined to check any abnormal signs in the organs of chest and abdomen.

MG-63 cells = test: Cytotoxicity test against osteoblast (MTT); format: cell-based, human
Procedure: (§1) In order examine the toxicities of the compounds of the Examples against osteoclast pregenitors, pregenitor cells were aliquotted onto a 96-well microplate at a density of 2×10^5 cells per well, treated with 2, 4 and 8 μM of the test compounds, respectively, and cultured for 48 hrs in α-MEM supplemented with 20 ng/ml of M-CSF (Peprotech, USA) using 37° C. incubator (5% CO2). At 3 hrs before the culture was finished, 50 μl of MTT (3-(4,5-dimethylthiazol-2-yl)-2,5-diphenyltetrazolium bromide) solution (50 μg/ml) was added to each well. Upon completion of the cell culture, the supernatant was removed, and the precipitated dye was reacted with 100 μl of isopropanol/0.04 N HCl at room temperature for 30 min to dissolve it. The absorbances of the wells were measured at 550 nm, and the relative absorbance of each well relative to that of the control (set as 100) is shown in Table 6.
In order to examine the toxicity of the compounds of the Examples against osteoblasts, human osteosarcoma-derived cell line, MG-63 (ATCC No. CRL-1427) cells were treated with 0.1, 0.3, 1.0 and 3.0 μM of the compounds of the Examples, and cultured in DMEM supplemented with 10% FBS (fetal bovine serum).

[3] = test system: osteoclast pregenitor cells; test: Cytotoxicity against osteoclast pregenitor (MTT); format: cell-based, mice; details: 48 hrs, absorbance at 550 nm
Procedure: as §1

[4] = In vivo pharmacokinetics using female mice (serum concentration, HPLC)
Procedure: Female mice each weighing […] were divided into groups of 5 mice each. The mice were anesthetized with ether, catheterized in their femoral artery and vein, respectively, and administered with 0.5 mg/kg body weight of compounds 234 and 274, and 5 mg/kg body weight of compounds 388, 404 and 415, respectively, via intravenous injection. Alternatively, 15 mg/kg body weight of compound 274 and 10 mg/kg body weight of compound 234 were orally administered to the mice.
At 0, 5, 10, 15 and 30 minutes and 1, 2, 4, 6, 9 and 12 hours after the intravenous injection, or at 0, 10, 20 and 40 minutes and 1, 2, 4, 6, 9 and 12 hours after the oral administration, 0.3 ml blood samples were taken from the mice through femoral artery. The blood samples were kept on an ice bath for 30 minutes and centrifuged at 3,000 rpm for 10 minutes to obtain a supernatant (serum). The supernatant samples were stored at −20° C.
Standard solution: Compounds 234, 274, 388, 404 and 415 were respectively dissolved in methanol to a concentration of 1 mg/ml to obtain stock solutions. The stock solutions were diluted with methanol to obtain standard solutions having concentrations of 40, 20, 10, 2, 1, 0.5, 0.2, 0.05 and 0.02 μg/ml, respectively.
Standard calibration curve: A stand calibration curve was prepared by employing calibration concentrations of 0.002, 0.005, 0.02, 0.05, 0.1, 0.2, 1, 2 and 4 μg/ml.
10 μl each of the standard solutions prepared above was added to 100 μl of normal serum sample and diluted 10 times. 250 μl of acetonitrile was added to the resulting dilution and the mixture was centrifuged for 10 minutes to obtain a supernatant. 300 μl of the supernatant was dried by evaporation under a nitrogen atmosphere and reconstituted by adding 50 μl of methanol. 20 μl of the resulting solution was analyzed by HPLC to prepare a standard calibration curve. HPLC was performed with Shimadzu ODS2 column (4.6×250 mm, 5 μm by employing a mixture of methanol/water (90/10 (v/v)) as the mobile phase at a flow rate of 1.2 ml/min, and measuring the absorbance at 240 nm.
Extraction: 100 μl of the serum sample obtained in (4-2-1) was put into a 1 ml microtube and 10 μl of methanol was added thereto. 250 μl of acetonitrile was added to the microtube and the mixture was centrifuged for 10 minutes to obtain a supernatant. 300 μl of the supernatant was dried by evaporation under a nitrogen atmosphere and reconstituted by adding 50 μl of methanol. 20 μl of the resulting solution was analyzed by the HPLC method as above.
Average concentrations of the compounds in the serum samples were plotted in a semi-log scale against the time lapsed after the administration, and the pharmacokinetic parameters were determined as a non-compartment open model by employing WinNonlin® program (Pharsight Corporation).

| Structure (SMILES) | Reduction (%) of the resorption pit area of osteoclasts (osteoclasts; 0.3 uM) | Reduction (%) of the resorption pit area of osteoclasts (osteoclasts; 1 uM) | Reduction (%) of the resorption pit area of osteoclasts (osteoclasts; 3 uM) | One-hour stability [2] | LD50 (rats; PO) | LD50 (rats; SC) | Osteoclast formation inhibitory effects (%) ([1]; 0.3 μM) | Osteoclast formation inhibitory effects (%) ([1]; 1.0 μM) | Osteoclast formation inhibitory effects (%) ([1]; 3.0 μM) | relative absorbance relative to that of the control (set as 100), MTT (MG-63 cells; 0.33 uM) | relative absorbance relative to that of the control (set as 100), MTT (MG-63 cells; 1 uM) | relative absorbance relative to that of the control (set as 100), MTT (MG-63 cells; 3 uM) | Half-life [2] | relative absorbance relative to that of the control (set as 100), MTT (MG-63 cells; 0.11 uM) | also measured |
| --- | --- | --- | --- | --- | --- | --- | --- | --- | --- | --- | --- | --- | --- | --- | --- |
| CO/C=C(/C(=O)OC)c1ccc(Cl)cc1COc1ccc(OCC2CC2)cc1 | 100% | 100% | 100% | 70% | 100-300 mg/kg body weight | 5 mg/kg body weight |  |  |  |  |  |  |  |  | inhibition at 0.3 µM ([1]; Mus musculus, Osteoclast, 192 h, 0.3 μM, read-out: Osteoclast formation inhibitory effects (%)): 98%; inhibition at 1 µM ([1]; Mus musculus, Osteoclast, 192 h, 1.0 μM, read-out: Osteoclast formation inhibitory effects (%)): 100%; inhibition at 3 µM ([1]; Mus musculus, Osteoclast, 192 h, 3.0 μM, read-out: Osteoclast formation inhibitory effects (%)): 100%; half-life at 20 µM ([2]; liver microsomes): > 3 h |
| CCCCCCOc1cccc(/C(C)=N/OCc2ccccc2/C(=C\OC)C(=O)OC)c1 [compound 15, (E)-methyl 2-(((({1E}-1-(3-(n-hexyloxy)phenyl)ethylidene)amino)oxy)methyl)phenyl-3-methoxyacrylate] | 41% | 57% | 93% | 33% | >2000 mg/kg body weight | >50 mg/kg body weight | 92% | 100% | 100% | 105 | 85 | 76 | 0.615 h |  |  |
| C=CCOc1ccc(OCc2ccccc2/C(=C\OC)C(=O)OC)cc1 [compound 179] | 86% | 100% | 100% | 70% | 500 mg/kg body weight | 42 mg/kg body weight | 84% | 100% | 100% | 111 | 108 | 106 | >3 h | 117 |  |
| C=CCOc1cccc(OCc2ccccc2/C(=C\OC)C(=O)OC)c1 [compound 211] | 96% | 100% | 100% | 60% | 500 mg/kg body weight | 51 mg/kg body weight | 23% | 96% | 100% | 101 | 105 | 106 | 1.77 h | 103 | relative absorbance relative to that of the control (set as 100), MTT ([3]; 2 uM): 88; relative absorbance relative to that of the control (set as 100), MTT ([3]; 4 uM): 103; relative absorbance relative to that of the control (set as 100), MTT ([3]; 8 uM): 103 |
| CO/C=C(/C(=O)OC)c1ccccc1COc1cccc(OCCN2CCOCC2)c1 [compound 234] | 95% | 100% | 100% | 83% | 100-300 mg/kg body weight | 7 mg/kg body weight | 25% | 100% | 100% | 98 | 115 | 97 | >3 h |  | AUC (area under the curve of blood concentration versus time) ([4]; I.V.): 477.6 ± 96.4 µg·h/mL; CL (clearance) ([4]; I.V.): 1.1 ± 0.2 mL/h; Half-life ([4]; I.V.): 10.6 ± 4.8 h; Vd (volume of distribution) ([4]; I.V.): 0.0152 ± 0.0052 L/kg; AUC (area under the curve of blood concentration versus time) ([4]; Oral): 680.4 ± 426.2 µg·h/mL; CL (clearance) ([4]; Oral): 19.5 ± 10.6 mL/h; Half-life ([4]; Oral): 12.8 ± 7.7 h; Vd (volume of distribution) ([4]; Oral): 0.3544 ± 0.2456 L/kg; bioavailability ([4]; oral versus I.V.): 35.4% |
| C=CCOc1ccc(OCc2cc(Cl)ccc2/C(=C\OC)C(=O)OC)cc1 [compound 264] | 100% | 100% | 100% | 80% | 269 mg/kg body weight | 25 mg/kg body weight | 98% | 100% | 100% | 107 | 104 | 92 | >3 h | 103 |  |
